What follows are compounds tested against T1, ATR kinase (full-length ATR) (Homo sapiens, UniProt Q13535) (assay: ATR Inhibition Assay (radioactive-phosphate incorporation)). Details: Ki(app); 5 nM full-length ATR, 10 μM ATP, 800 μM target peptide, 25° C.; class symbols; read-out: ATR Inhibition Ki.
T1 construct: Assays were carried out at 25° C. in the presence of 5 nM full-length ATR
T1 sequence (Q13535 whole entry): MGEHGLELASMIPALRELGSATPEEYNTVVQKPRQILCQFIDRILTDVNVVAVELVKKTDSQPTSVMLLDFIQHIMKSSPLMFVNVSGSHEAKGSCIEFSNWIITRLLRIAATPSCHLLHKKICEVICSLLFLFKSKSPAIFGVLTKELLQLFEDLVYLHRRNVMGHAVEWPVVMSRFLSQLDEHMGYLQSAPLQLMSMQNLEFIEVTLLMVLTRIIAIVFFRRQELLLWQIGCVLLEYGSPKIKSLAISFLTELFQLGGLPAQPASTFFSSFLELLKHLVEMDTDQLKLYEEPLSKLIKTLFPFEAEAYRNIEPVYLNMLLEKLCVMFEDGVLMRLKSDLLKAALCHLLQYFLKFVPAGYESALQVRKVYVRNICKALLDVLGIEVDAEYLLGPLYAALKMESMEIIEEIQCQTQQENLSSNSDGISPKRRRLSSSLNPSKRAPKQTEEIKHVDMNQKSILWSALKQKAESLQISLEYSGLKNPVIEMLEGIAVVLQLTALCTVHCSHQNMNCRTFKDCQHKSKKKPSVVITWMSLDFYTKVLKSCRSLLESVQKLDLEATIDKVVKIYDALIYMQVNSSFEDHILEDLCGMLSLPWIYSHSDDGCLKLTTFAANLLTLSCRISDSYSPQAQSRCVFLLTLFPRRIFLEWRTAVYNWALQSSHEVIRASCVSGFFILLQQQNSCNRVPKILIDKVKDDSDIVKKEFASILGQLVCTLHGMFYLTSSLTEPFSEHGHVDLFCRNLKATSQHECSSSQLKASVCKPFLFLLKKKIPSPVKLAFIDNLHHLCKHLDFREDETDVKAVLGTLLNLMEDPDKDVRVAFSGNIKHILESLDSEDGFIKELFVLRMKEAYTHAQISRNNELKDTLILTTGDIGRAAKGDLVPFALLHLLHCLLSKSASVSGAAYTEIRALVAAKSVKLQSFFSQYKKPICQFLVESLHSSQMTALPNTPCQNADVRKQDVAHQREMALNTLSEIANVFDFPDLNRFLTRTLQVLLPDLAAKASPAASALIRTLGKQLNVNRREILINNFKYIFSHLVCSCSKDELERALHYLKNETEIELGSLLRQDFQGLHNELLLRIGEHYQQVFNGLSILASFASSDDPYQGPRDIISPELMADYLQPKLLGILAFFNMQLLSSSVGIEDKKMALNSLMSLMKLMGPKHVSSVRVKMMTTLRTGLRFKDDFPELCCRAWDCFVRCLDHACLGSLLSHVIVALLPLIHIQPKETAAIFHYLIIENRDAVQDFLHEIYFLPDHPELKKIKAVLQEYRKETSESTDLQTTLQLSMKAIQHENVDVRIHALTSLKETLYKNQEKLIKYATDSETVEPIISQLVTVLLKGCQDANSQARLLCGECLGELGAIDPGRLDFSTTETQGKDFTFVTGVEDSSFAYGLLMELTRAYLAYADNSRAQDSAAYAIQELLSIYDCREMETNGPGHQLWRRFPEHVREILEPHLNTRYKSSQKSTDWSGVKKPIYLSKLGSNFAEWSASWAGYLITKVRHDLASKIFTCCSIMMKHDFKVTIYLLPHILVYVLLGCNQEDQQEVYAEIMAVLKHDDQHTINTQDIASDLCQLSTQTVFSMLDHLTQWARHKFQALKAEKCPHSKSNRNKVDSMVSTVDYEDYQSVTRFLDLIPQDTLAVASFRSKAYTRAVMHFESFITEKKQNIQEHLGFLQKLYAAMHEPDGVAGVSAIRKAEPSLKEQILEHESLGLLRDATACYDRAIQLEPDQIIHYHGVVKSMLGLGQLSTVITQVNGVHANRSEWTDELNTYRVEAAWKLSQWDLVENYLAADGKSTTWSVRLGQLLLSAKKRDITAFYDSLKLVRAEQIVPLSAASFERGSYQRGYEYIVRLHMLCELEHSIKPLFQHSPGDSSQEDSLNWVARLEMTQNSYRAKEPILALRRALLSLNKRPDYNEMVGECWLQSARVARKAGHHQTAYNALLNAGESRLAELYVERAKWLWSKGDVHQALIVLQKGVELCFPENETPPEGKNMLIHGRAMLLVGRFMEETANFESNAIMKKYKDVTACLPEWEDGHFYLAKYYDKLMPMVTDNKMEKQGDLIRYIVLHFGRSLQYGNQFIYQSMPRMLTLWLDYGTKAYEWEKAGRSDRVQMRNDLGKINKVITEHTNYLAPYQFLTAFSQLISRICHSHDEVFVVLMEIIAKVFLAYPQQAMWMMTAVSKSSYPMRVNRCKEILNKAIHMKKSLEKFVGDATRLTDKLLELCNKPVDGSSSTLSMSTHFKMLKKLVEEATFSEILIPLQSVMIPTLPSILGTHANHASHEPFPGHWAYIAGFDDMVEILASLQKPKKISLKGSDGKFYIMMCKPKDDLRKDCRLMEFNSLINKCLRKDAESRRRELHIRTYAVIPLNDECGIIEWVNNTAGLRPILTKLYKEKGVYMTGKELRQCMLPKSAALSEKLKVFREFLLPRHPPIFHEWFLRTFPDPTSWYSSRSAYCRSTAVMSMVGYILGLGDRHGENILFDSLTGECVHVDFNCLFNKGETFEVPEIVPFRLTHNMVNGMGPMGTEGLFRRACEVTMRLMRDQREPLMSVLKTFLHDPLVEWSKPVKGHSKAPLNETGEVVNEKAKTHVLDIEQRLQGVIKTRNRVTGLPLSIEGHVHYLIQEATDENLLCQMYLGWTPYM
Assay type: biochemical
Procedure: Compounds were screened for their ability to inhibit ATR kinase using a radioactive-phosphate incorporation assay. Assays were carried out in a mixture of 50 mM Tris/HCl (pH 7.5), 10 mM MgCl2 and 1 mM DTT. Final substrate concentrations were 10 μM [y-33P]ATP (3mCi 33P ATP/mmol ATP, Perkin Elmer) and 800 μM target peptide ([…]).
Assays were carried out at 25° C. in the presence of 5 nM full-length ATR. An assay stock buffer solution was prepared containing all of the reagents listed above, with the exception of ATP and the test compound of interest. […] The plate was pre-incubated for 10 minutes at 25° C. and the reaction initiated by addition of 15 μL [y-33P]ATP (final concentration 10 μM).
The reaction was stopped after […] by the addition of 30 μL 0.1M phosphoric acid containing 2 mM ATP. A multiscreen phosphocellulose filter 96-well plate (Millipore, Cat no. MAPHN0B50) was pretreated with 100 μL 0.2M phosphoric acid prior to the addition of 45 μL of the stopped assay mixture. The plate was washed with 5×200 μL 0.2M phosphoric acid.
After removing mean background values for all of the data points, Ki(app) data were calculated from non-linear regression analysis of the initial rate data using the Prism software package (GraphPad Prism version 3.0cx for Macintosh, GraphPad Software, San Diego Calif., USA).
CC(C)S(=O)(=O)c1ccc(-c2cnc3[nH]cc(C(=O)N[C@@H]4c5ccccc5C[C@@H]4O)c3n2)cc1 [Compound I-65, N-[(1R,2S)-2-hydroxyindan-1-yl]-2-(4-isopropylsulfonylphenyl)-5H-pyrrolo[2,3-b]pyrazine-7-carboxamide] was tested, and the Ki was 500 to 5000 nM. With Cc1cccc(CNC(=O)c2c[nH]c3ncc(-c4ccc(S(=O)(=O)C(C)C)cc4)nc23)c1Cl [Compound I-66, N-[(2-chloro-3-methyl-phenyl)methyl]-2-(4-isopropylsulfonylphenyl)-5H-pyrrolo[2,3-b]pyrazine-7-carboxamide] the Ki was < 100 nM. For Cc1ccc(Cl)cc1CNC(=O)c1c[nH]c2ncc(-c3ccc(S(=O)(=O)C(C)C)cc3)nc12 [Compound I-67, N-[(5-chloro-2-methyl-phenyl)methyl]-2-(4-isopropylsulfonylphenyl)-5H-pyrrolo[2,3-b]pyrazine-7-carboxamide], the Ki was < 100 nM. For Cc1cccc(CNC(=O)c2c[nH]c3ncc(-c4ccc(S(=O)(=O)C(C)C)cc4)nc23)c1C [Compound I-68, N-[(2,3-dimethylphenyl)methyl]-2-(4-isopropylsulfonylphenyl)-5H-pyrrolo[2,3-b]pyrazine-7-carboxamide], the Ki was < 100 nM. CC(C)S(=O)(=O)c1ccc(-c2cnc3[nH]cc(C(=O)N[C@H]4c5ccccc5C[C@H]4O)c3n2)cc1 [Compound I-69, N-[(1S,2R)-2-hydroxyindan-1-yl]-2-(4-isopropylsulfonylphenyl)-5H-pyrrolo[2,3-b]pyrazine-7-carboxamide] was tested, and the Ki was < 100 nM. In the case of Cc1ccc(NC(=O)c2c[nH]c3ncc(-c4ccc(S(=O)(=O)C(C)C)cc4)nc23)cc1 [Compound I-70, 2-(4-isopropylsulfonylphenyl)-N-(p-tolyl)-5H-pyrrolo[2,3-b]pyrazine-7-carboxamide], the Ki is reported as 100 to 500 nM. For CC(C)S(=O)(=O)c1ccc(-c2cnc3[nH]cc(C(=O)N[C@@H](C)c4ccccc4F)c3n2)cc1 [Compound I-71, N-[(1S)-1-(2-fluorophenyl)ethyl]-2-(4-isopropylsulfonylphenyl)-5H-pyrrolo[2,3-b]pyrazine-7-carboxamide], the Ki was 100 to 500 nM. CC(C)S(=O)(=O)c1ccc(-c2cnc3[nH]cc(C(=O)Nc4ccc(F)cc4)c3n2)cc1 [Compound I-72, N-(4-fluorophenyl)-2-(4-isopropylsulfonylphenyl)-5H-pyrrolo[2,3-b]pyrazine-7-carboxamide] showed a Ki of 100 to 500 nM. CC(C)S(=O)(=O)c1ccc(-c2cnc3[nH]cc(C(=O)Nc4cccc(F)c4)c3n2)cc1 [Compound I-73, N-(3-fluorophenyl)-2-(4-isopropylsulfonylphenyl)-5H-pyrrolo[2,3-b]pyrazine-7-carboxamide] was tested, and the Ki was < 100 nM. CC(C)S(=O)(=O)c1ccc(-c2cnc3[nH]cc(C(=O)N[C@@H](C)c4ccc(F)cc4)c3n2)cc1 [Compound I-74, N-[(1S)-1-(4-fluorophenyl)ethyl]-2-(4-isopropylsulfonylphenyl)-5H-pyrrolo[2,3-b]pyrazine-7-carboxamide] was tested, and the Ki was 500 to 5000 nM. Work on CC(C)S(=O)(=O)c1ccc(-c2cnc3[nH]cc(C(=O)NCc4cccc(F)c4)c3n2)cc1 [Compound I-75, N-[(3-fluorophenyl)methyl]-2-(4-isopropylsulfonylphenyl)-5H-pyrrolo[2,3-b]pyrazine-7-carboxamide] yielded a Ki of 100 to 500 nM. With Cc1cccc(NC(=O)c2c[nH]c3ncc(-c4ccc(S(=O)(=O)C(C)C)cc4)nc23)c1 [Compound I-76, 2-(4-isopropylsulfonylphenyl)-N-(m-tolyl)-5H-pyrrolo[2,3-b]pyrazine-7-carboxamide] the Ki was 500 to 5000 nM. CC(C)S(=O)(=O)c1ccc(-c2cnc3[nH]cc(C(=O)NC(CCO)c4cccc(O)c4)c3n2)cc1 (centres unmarked) [Compound I-77, N-[3-hydroxy-1-(3-hydroxyphenyl)propyl]-2-(4-isopropylsulfonylphenyl)-5H-pyrrolo[2,3-b]pyrazine-7-carboxamide] was tested, and the Ki was 100 to 500 nM. With CC(C)S(=O)(=O)c1ccc(-c2cnc3[nH]cc(C(=O)NC(CCO)c4ccc(F)cc4)c3n2)cc1 (centres unmarked) [Compound I-78, N-[1-(4-fluorophenyl)-3-hydroxy-propyl]-2-(4-isopropylsulfonylphenyl)-5H-pyrrolo[2,3-b]pyrazine-7-carboxamide] the Ki was 100 to 500 nM.

Reference: patent publication US9096602B2, “Substituted pyrrolo[2,3-B]pyrazines as ATR kinase inhibitors” (Vertex Pharmaceuticals Incorporated, priority 2011, dated 2015)
